Tests used:
[1] = test system: global cerebral ischemia in rats; experiment: Global cerebral ischemia in rats, bilateral common carotid artery occlusion with exsanguine hypotension; format: in vivo; conditions: reperfusion after 10 min occlusion
From the text: The animal models of the bilateral common carotid artery occlusion with exsanguine hypotension in the rats were used to investigate the effect against global cerebral ischemia.
Methods: The animals were administrated four compounds (IV-2, 23, 34, 36) orally for 3 days before the experiment. […]

[2] = test system: primary culture of rat cerebral cortical neuronal cells; experiment: Effect of NMDA on neurons, LDH activity in supernatant; format: cell-based; conditions: n = 12
From the text: Primary culture of rat cerebral cortical neuronal cells were used. […] This is further evidence that IV-23 is a new NMDA receptor antagonist, and has anti-cerebral ischemic injury functions as well.

[3] = test system: global cerebral ischemia-reperfusion injury in rats; experiment: Global cerebral ischemia-reperfusion in rats, four arteries reversible occlusion; format: in vivo; conditions: Nimodipine 1 mg/kg
From the text: The effect of IV-23 on cerebral ischemia-reperfusion in rats was studied using four arteries reversible occlusion by measuring the recovering time of the electroencephalogram and the righting reflex (a short time indicates a strong effect).

[4] = test system: focal cerebral ischemia in rats; experiment: Focal cerebral infarction, electrical coagulation to occlude MCA; format: in vivo; parameters: The neurological deficit score After the operation / The neurological deficit score 24 h: scale not given here; conditions: Nimodipine, dose not given
Description: a. The Focal Cerebral-Infarction of Using Electrical Coagulation to Occlude MCA:
For the 5 mg/kg group, the percentage of the rat's infarct size was decreased, but the difference is not significant (p=0.098). The effect is not significant for the Nimodipine mg/kg.

[5] = test system: focal cerebral ischemia in rats; experiment: Focal cerebral ischemia in rats by occlusion of middle cerebral artery (MCA); format: in vivo; conditions: 20 mg/kg p.o.
Description: The focal ischemia rat model by occlusion of middle cerebral artery (MCA) was used to determine the protective effects of the compounds on focal cerebral ischemia. The infarct size after focal cerebral ischemia and the weight percentage of cerebral hemisphere were calculated to evaluate the compounds' effects on focal cerebral ischemia.

O=C(CN1CCN(CC(O)c2ccccc2)CC1)c1ccccc1 (stereo not shown) [IV-36, N^1-phenacyl-N^4-(2-phenylethyl-2-ol) piperazine]
Recovery time of EEG ([1]; 20 mg/kg orally for 3 days): 20.10 min

CN[C@H](CC(=O)O)C(=O)O [NMDA, N-methyl-D-aspartate]
LDH activities (U/g protein) (mean ± SEM) ([2]; NMDA 0.1 mmol/L): 1.51 ± 0.25 U/g protein | LDH activities (U/g protein) (mean ± SEM) ([2]; NMDA 0.5 mmol/L): 1.63 ± 0.19 U/g protein | LDH activities (U/g protein) (mean ± SEM) ([2]; NMDA 1 mmol/L): 1.74 ± 0.17 U/g protein | LDH activities (U/g protein) (mean ± SEM) ([2]; NMDA 2 mmol/L): 2.38 ± 0.31 U/g protein

COCCOC(=O)C1=C(C)NC(C)=C(C(=O)OC(C)C)C1c1cccc([N+](=O)[O-])c1 (stereo not shown) [Nimodipine, reference compound]
Time for electroencephalogram to disappear(S) [3]: 396.0 ± 559.8^Δ S | Time for electroencephalogram to recover (S) [3]: 3264.0 ± 336.4^Δ S | Time for righting reflex to recover (S) [3]: 1284.0 ± 1319.8^Δ S | Recovery time of EEG ([1]; Nimodipine 1 mg/kg positive control): 13.49 ± 5.55 min | The neurological deficit score 24 h [4]: 8.3 ± 2.0 | The neurological deficit score After the operation [4]: 9.7 ± 0.5 | The percentage of infarction (%) [4]: 20.5 ± 6.8 % | The weight of infarct area [4]: 0.15 ± 0.05 g | Infarct volume [5]: 0.188 ± 0.013 g | Neurological deficit After operation [5]: 9.3 ± 1.7 | Neurological deficit 24 h ([5]; 24 h after operation): 9.0 ± 4.1

— patent US7326710B2, “Aralkyl formyl-alkyl piperazine derivatives and their uses as a cerebral nerve protective agent” (Shanghai Institute of Pharmaceutical Industry, priority 2002, dated 2008)
